Measurements: ChEMBL document CHEMBL1149220, “1-(2-Naphthyl)-1H-pyrazole-5-carboxylamides as potent factor Xa inhibitors. Part 2: A survey of P4 motifs” (Bioorg Med Chem Lett, 2004)

How the values were obtained:
Coagulation factor X [1] = target: T1, Coagulation factor X (Homo sapiens, UniProt P00742); assay: Binding affinity against Coagulation factor X
Coagulation factor X [2] = target: T1, Coagulation factor X; assay: In vitro anticoagulant potency measured in human plasma by thrombin generation (TG) assay expressed as 2 x TG; assay type: functional, cell-free
Coagulation factor X [3] = target: T1, Coagulation factor X; assay: Inhibitory concentration against human Coagulation factor X
[4] = Half-life determined in rat; assay type: ADME, organism-based; settings: in vivo
Plasminogen = assay: Inhibitory concentration of compound was determined against Plasmin
[5] = target: Tissue-type plasminogen activator (Homo sapiens, UniProt P00750); assay: Inhibitory concentration against tissue type plasminogen activator
[6] = Volume of distribution in rat; assay type: ADME, organism-based; settings: in vivo
Prothrombin = Prothrombin (Homo sapiens, UniProt P00734); assay: Inhibitory concentration of compound was determined against thrombin
[7] = Clearance rate in rat; assay type: ADME, organism-based; settings: in vivo
Kallikrein-1 = Kallikrein-1 (Homo sapiens, UniProt P06870); assay: Inhibitory concentration of compound was determined against kallikrein
[8] = Bioavailability in rat; assay type: ADME, organism-based; settings: in vivo
[9] = target: T2, Vitamin K-dependent protein C (Homo sapiens, UniProt P04070); assay: Inhibitory concentration of compound was determined against activated protein C
Serine protease 1 = Serine protease 1 (Homo sapiens, UniProt P07477); assay: Inhibitory concentration of compound was determined against trypsin
[10] = target: T2, Vitamin K-dependent protein C; assay: Inhibitory concentration of compound was determined against activated protein C (aPC)

Sequence of Tissue-type plasminogen activator (P00750 whole entry): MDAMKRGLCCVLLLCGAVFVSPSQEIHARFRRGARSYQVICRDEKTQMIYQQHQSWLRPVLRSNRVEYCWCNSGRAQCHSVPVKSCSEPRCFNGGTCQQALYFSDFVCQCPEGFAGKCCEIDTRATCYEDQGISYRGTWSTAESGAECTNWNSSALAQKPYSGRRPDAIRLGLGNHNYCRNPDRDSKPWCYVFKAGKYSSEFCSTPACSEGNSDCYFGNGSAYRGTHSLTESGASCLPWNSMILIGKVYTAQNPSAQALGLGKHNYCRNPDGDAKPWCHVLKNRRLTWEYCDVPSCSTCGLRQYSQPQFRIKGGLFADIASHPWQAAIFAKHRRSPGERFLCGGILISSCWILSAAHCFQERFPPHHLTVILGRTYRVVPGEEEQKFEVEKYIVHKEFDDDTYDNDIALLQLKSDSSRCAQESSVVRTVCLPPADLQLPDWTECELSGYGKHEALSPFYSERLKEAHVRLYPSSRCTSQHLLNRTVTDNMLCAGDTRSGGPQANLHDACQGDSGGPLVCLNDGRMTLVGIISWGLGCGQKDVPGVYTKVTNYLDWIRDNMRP
Sequence of Kallikrein-1 (P06870 whole entry): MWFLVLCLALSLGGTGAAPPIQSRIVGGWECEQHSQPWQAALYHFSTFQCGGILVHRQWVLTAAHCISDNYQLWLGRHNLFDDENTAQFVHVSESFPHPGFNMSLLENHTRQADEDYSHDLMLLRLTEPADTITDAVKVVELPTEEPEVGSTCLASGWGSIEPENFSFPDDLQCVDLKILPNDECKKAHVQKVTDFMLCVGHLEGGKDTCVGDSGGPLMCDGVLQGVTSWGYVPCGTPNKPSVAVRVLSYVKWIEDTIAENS
T1 sequence (P00742 41-179 limits assumed): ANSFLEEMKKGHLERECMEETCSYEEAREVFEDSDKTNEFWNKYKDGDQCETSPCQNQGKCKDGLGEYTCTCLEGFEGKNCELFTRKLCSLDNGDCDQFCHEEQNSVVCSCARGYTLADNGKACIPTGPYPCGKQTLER
T1 sequence (P00742 235-488 limits assumed): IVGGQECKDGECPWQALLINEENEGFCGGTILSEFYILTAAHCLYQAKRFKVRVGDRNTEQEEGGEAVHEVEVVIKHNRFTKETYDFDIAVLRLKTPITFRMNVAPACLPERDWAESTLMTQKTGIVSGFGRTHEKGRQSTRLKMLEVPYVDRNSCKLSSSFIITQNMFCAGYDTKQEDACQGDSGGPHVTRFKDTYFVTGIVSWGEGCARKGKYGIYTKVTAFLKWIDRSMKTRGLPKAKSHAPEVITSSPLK
Sequence of Serine protease 1 (P07477 whole entry): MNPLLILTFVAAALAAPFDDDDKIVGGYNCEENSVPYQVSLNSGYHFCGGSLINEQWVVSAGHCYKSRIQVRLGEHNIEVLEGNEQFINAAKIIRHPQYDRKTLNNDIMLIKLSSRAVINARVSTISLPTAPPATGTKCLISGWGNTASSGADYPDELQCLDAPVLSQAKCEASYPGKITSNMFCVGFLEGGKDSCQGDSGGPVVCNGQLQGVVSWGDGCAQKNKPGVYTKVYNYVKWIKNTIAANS
T2 sequence (P04070 43-197 limits assumed): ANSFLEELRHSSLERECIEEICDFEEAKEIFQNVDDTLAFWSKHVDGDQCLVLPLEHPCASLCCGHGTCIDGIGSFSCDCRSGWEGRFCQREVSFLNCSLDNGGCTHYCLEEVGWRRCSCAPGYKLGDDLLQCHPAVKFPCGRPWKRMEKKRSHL
T2 sequence (P04070 212-461 limits assumed): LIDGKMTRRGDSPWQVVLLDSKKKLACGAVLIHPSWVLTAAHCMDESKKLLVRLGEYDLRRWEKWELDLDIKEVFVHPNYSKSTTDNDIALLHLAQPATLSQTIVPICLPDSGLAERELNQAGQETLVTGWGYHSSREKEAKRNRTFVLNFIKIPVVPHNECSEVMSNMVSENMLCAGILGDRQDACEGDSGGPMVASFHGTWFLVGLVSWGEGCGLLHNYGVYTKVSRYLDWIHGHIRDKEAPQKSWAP
Sequence of Plasminogen (Q01177 97-581 limits assumed): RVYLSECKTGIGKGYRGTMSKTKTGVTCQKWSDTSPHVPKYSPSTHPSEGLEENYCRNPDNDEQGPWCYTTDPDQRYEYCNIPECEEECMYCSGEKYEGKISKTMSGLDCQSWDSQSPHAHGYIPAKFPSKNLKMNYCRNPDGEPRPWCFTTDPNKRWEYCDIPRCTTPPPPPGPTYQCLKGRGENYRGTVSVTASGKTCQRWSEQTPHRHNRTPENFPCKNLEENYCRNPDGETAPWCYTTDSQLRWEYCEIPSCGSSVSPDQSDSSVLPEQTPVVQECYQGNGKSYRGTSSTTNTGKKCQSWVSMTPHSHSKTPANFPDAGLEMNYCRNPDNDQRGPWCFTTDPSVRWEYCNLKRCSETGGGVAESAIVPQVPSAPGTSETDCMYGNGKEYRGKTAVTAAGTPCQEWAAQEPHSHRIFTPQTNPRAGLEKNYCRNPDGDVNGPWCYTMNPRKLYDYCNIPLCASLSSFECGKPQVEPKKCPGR
Sequence of Plasminogen (Q01177 582-812 limits assumed): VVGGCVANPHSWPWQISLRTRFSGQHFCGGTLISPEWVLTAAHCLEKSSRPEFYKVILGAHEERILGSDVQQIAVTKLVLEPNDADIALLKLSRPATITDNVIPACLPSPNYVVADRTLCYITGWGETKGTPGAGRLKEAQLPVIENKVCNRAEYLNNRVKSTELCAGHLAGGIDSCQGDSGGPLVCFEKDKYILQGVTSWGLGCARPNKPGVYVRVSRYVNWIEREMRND

| Compound | Ki (Coagulation factor X [1]) | Activity (Coagulation factor X [2]) | IC50 (Coagulation factor X [3]) | also measured |
| --- | --- | --- | --- | --- |
| Cc1cc(C(=O)Nc2ccc(-n3ccnc3CN(C)C)cc2)n(-c2ccc3cc(Cl)ccc3c2)n1 | 2.8 nM | > 5 µM | 8 nM | – |
| Cc1cc(C(=O)Nc2ncc(-c3ccccc3S(N)(=O)=O)cn2)n(-c2cc3ccccc3cc2F)n1 | – | – | 39 nM | – |
| Cc1cc(C(=O)Nc2ccc(C(=O)N3CCCCC3)cc2)n(-c2ccc3cc(Cl)ccc3c2)n1 | – | – | 66 nM | – |
| Cc1cc(C(=O)Nc2ccc(-c3cccc(CN)c3)cc2)n(-c2ccc3cc(Cl)ccc3c2)n1 | – | – | 70 nM | – |
| Cc1cc(C(=O)Nc2ccc(-c3ccccc3S(N)(=O)=O)cc2F)n(-c2cc3ccccc3cc2S(C)(=O)=O)n1 | 1.1 nM | 4.5 µM | 5 nM | – |
| Cc1cc(C(=O)Nc2ccc(-n3nccn3)cc2)n(-c2ccc3cc(Cl)ccc3c2)n1 | – | – | 2100 nM | – |
| Cc1cc(C(=O)Nc2ccc(-n3ccnn3)cc2)n(-c2ccc3cc(Cl)ccc3c2)n1 | – | – | 112 nM | – |
| Cc1cc(C(=O)Nc2ccc(-c3ccccc3S(N)(=O)=O)cc2F)n(-c2cc3ccccc3cc2F)n1 | – | – | 29 nM | – |
| Cc1cc(C(=O)Nc2ccc(-n3ccnc3CN)cc2F)n(-c2cc3ccccc3cc2F)n1 | – | – | 13 nM | – |
| Cc1cc(C(=O)Nc2ccc(-n3ccnc3CN(C)C)cc2F)n(-c2cc3ccccc3cc2S(C)(=O)=O)n1 | 3.2 nM | 1.7 µM | 8 nM | – |
| Cc1cc(C(=O)Nc2ccc(-c3ccccc3S(N)(=O)=O)cc2F)n(-c2ccc3cc(Cl)ccc3c2)n1 | 3.4 nM | > 5 µM | 3 nM | – |
| Cc1cc(C(=O)Nc2ccc(-c3cccnc3)cc2F)n(-c2ccc3cc(Cl)ccc3c2)n1 | – | – | 92 nM | – |
| Cc1cc(C(=O)Nc2ccc(-c3cccc(C(=N)N(C)C)c3)cc2)n(-c2ccc3cc(Cl)ccc3c2)n1 | – | – | 380 nM | – |
| Cc1cc(C(=O)Nc2ccc(N3CCOCC3=O)cc2F)n(-c2cc3ccccc3cc2S(C)(=O)=O)n1 | 0.8 nM | 0.44 µM | 2 nM | half-life [4]: 0.5 h; IC50 (Plasminogen): > 10000 nM; IC50 [5]: > 10000 nM; Vd [6]: 0.8 L/kg; IC50 (Prothrombin): > 10000 nM; clearance [7]: 16.8 mL/min/kg; IC50 (Kallikrein-1): > 10000 nM; bioavailability [8]: 19.3%; IC50 [9]: > 10000 nM; IC50 (Serine protease 1): > 10000 nM |
| Cc1cc(C(=O)Nc2ccc(C(=O)N(C)C)cc2)n(-c2ccc3cc(Cl)ccc3c2)n1 | – | > 5 µM | 13 nM | – |
| Cc1cc(C(=O)Nc2ccc(N3CCN(C)CC3)cc2)n(-c2ccc3cc(Cl)ccc3c2)n1 | – | – | 166 nM | – |
| Cc1cc(C(=O)Nc2ccc(-c3ccccc3S(N)(=O)=O)cn2)n(-c2cc3ccccc3cc2F)n1 | – | – | 81 nM | – |
| Cc1cc(C(=O)Nc2ccc(N3CCNCCC3=O)cc2)n(-c2ccc3cc(Cl)ccc3c2)n1 | – | – | 130 nM | – |
| Cc1cc(C(=O)Nc2ccc(N3CCOCC3)cc2)n(-c2ccc3cc(Cl)ccc3c2)n1 | – | – | 88 nM | – |
| Cc1cc(C(=O)Nc2ccc(-n3ccnc3C)cc2)n(-c2ccc3cc(Cl)ccc3c2)n1 | 2.9 nM | > 5 µM | 8 nM | – |
| Cc1cc(C(=O)Nc2ccc(-c3ccccc3S(N)(=O)=O)cn2)n(-c2ccc3cc(Cl)ccc3c2)n1 | 1.9 nM | 2 µM | 5 nM | – |
| Cc1cc(C(=O)Nc2ccc(-c3ccccc3CN)cc2F)n(-c2cc3ccccc3cc2F)n1 | 2.4 nM | 2.2 µM | 2 nM | IC50 [10]: > 10000 nM; half-life [4]: 2.5 h; IC50 (Plasminogen): > 10000 nM; IC50 [5]: > 10000 nM; Vd [6]: 11 L/kg; IC50 (Prothrombin): > 10000 nM; clearance [7]: 51.8 mL/min/kg; IC50 (Kallikrein-1): > 10000 nM; bioavailability [8]: 22.8%; IC50 (Serine protease 1): > 10000 nM |
| Cc1cc(C(=O)Nc2ccc(-n3ccnc3)cc2)n(-c2ccc3cc(Cl)ccc3c2)n1 | – | – | 108 nM | – |
| Cc1cc(C(=O)Nc2ccc(-n3ccnc3C)cc2F)n(-c2ccc3cc(Cl)ccc3c2)n1 | – | – | 15 nM | – |
| Cc1cc(C(=O)Nc2ccc(N3CCCNCC3)cc2)n(-c2ccc3cc(Cl)ccc3c2)n1 | – | – | 36 nM | – |
| Cc1cc(C(=O)Nc2ccc(-c3ccccc3S(N)(=O)=O)cc2)n(-c2ccc3cc(Cl)ccc3c2)n1 | – | > 5 µM | – | – |
| Cc1cc(C(=O)Nc2ccc(N3CCCC3=O)cc2F)n(-c2cc3ccccc3cc2S(C)(=O)=O)n1 | – | – | 58 nM | – |
| Cc1cc(C(=O)Nc2ccc(-c3ccccc3CN(C)C)cc2)n(-c2ccc3cc(Cl)ccc3c2)n1 | 1.8 nM | 2 µM | 5 nM | – |

| Compound | Ki (Coagulation factor X [1]) | Activity (Coagulation factor X [2]) | IC50 (Coagulation factor X [3]) | also measured |
| --- | --- | --- | --- | --- |
| Cc1cc(C(=O)Nc2ccc(-c3ccccc3S(C)(=O)=O)cc2F)n(-c2ccc3cc(Cl)ccc3c2)n1 | 1.8 nM | > 5 µM | 6 nM | – |
| Cc1cc(C(=O)Nc2ccc(-c3ccccc3C(=N)N(C)C)cc2)n(-c2ccc3cc(Cl)ccc3c2)n1 | – | – | 26 nM | – |
| Cc1cc(C(=O)Nc2ccc(N3CCOCC3=O)cc2F)n(-c2ccc3cc(Cl)ccc3c2)n1 | 0.5 nM | 5 µM | 1 nM | – |
| Cc1cc(C(=O)Nc2ccc(N3CCCCC3)cc2)n(-c2ccc3cc(Cl)ccc3c2)n1 | – | – | 131 nM | – |
| Cc1cc(C(=O)Nc2ccc(N3CCCN(C)CC3)cc2)n(-c2ccc3cc(Cl)ccc3c2)n1 | – | 5 µM | 22 nM | – |
| Cc1cc(C(=O)Nc2ccc(N3CCCCC3=O)cc2)n(-c2ccc3cc(Cl)ccc3c2)n1 | 1.1 nM | > 5 µM | 3 nM | – |
| Cc1cc(C(=O)Nc2ccc(N3CCOCCC3=O)cc2F)n(-c2cc3ccccc3cc2S(C)(=O)=O)n1 | – | – | 23 nM | – |
| Cc1cc(C(=O)Nc2ccc(-c3ccccc3S(C)(=O)=O)cc2F)n(-c2cc3ccccc3cc2S(C)(=O)=O)n1 | 1.7 nM | 1 µM | 9 nM | IC50 [10]: > 10000 nM; half-life [4]: 0.7 h; IC50 (Plasminogen): > 10000 nM; IC50 [5]: > 10000 nM; Vd [6]: 2.6 L/kg; IC50 (Prothrombin): > 10000 nM; clearance [7]: 41.2 mL/min/kg; IC50 (Kallikrein-1): > 10000 nM; bioavailability [8]: 18%; IC50 (Serine protease 1): > 10000 nM |
| Cc1cc(C(=O)Nc2ccc(-c3ccncc3)cc2F)n(-c2ccc3cc(Cl)ccc3c2)n1 | – | – | 40 nM | – |
| Cc1cc(C(=O)Nc2ccc(-c3ccccn3)cc2F)n(-c2ccc3cc(Cl)ccc3c2)n1 | – | – | 94 nM | – |
| Cc1cc(C(=O)Nc2ccc(N3CCOCC3=O)cc2F)n(-c2cc3ccccc3cc2F)n1 | 0.5 nM | > 5 µM | 2 nM | – |
| Cc1cc(C(=O)Nc2ccc(-n3ccnc3CN(C)C)cc2F)n(-c2ccc3cc(Cl)ccc3c2)n1 | – | 3 µM | – | – |
| Cc1cc(C(=O)Nc2ccc(N3CCNCC3=O)cc2F)n(-c2cc3ccccc3cc2S(C)(=O)=O)n1 | – | – | 41 nM | – |
| Cc1cc(C(=O)Nc2ncc(-c3ccccc3S(N)(=O)=O)cn2)n(-c2ccc3cc(Cl)ccc3c2)n1 | 2.5 nM | 2 µM | 7 nM | – |
| Cc1cc(C(=O)Nc2ccc(-c3ccccc3CN(C)C)cc2F)n(-c2ccc3cc(Cl)ccc3c2)n1 | 1.5 nM | 1.7 µM | 2 nM | IC50 [10]: > 10000 nM; half-life [4]: 7.2 h; IC50 (Plasminogen): > 10000 nM; IC50 [5]: > 10000 nM; Vd [6]: 22.1 L/kg; IC50 (Prothrombin): 5500 nM; clearance [7]: 35.7 mL/min/kg; IC50 (Kallikrein-1): 9700 nM; bioavailability [8]: 35.2%; IC50 (Serine protease 1): > 10000 nM |
| Cc1cc(C(=O)Nc2ccc(-c3ccccc3S(N)(=O)=O)cn2)n(-c2cc3ccccc3cc2S(C)(=O)=O)n1 | – | – | 46 nM | – |
| Cc1cc(C(=O)Nc2ccc(-n3cccn3)cc2)n(-c2ccc3cc(Cl)ccc3c2)n1 | – | – | 215 nM | – |
| Cc1cc(C(=O)Nc2ccc(-c3ccccc3S(C)(=O)=O)cc2)n(-c2ccc3cc(Cl)ccc3c2)n1 | 1.4 nM | > 5 µM | – | – |
| Cc1cc(C(=O)Nc2ccc(N3CCCCC3=O)cc2F)n(-c2cc3ccccc3cc2S(C)(=O)=O)n1 | – | – | 27 nM | – |
| Cc1cc(C(=O)Nc2ccc(-c3ccccc3S(C)(=O)=O)cc2F)n(-c2cc3ccccc3cc2F)n1 | – | – | 14 nM | – |
| Cc1cc(C(=O)Nc2ccc(N3CCOCC3=O)cc2)n(-c2ccc3cc(Cl)ccc3c2)n1 | 0.3 nM | 3 µM | 1 nM | – |
| Cc1cc(C(=O)Nc2ccc(N3CCNCCC3=O)cc2F)n(-c2cc3ccccc3cc2S(C)(=O)=O)n1 | – | – | 680 nM | – |
| Cc1cc(C(=O)Nc2ccc(C(=O)N3CCCC3)cc2)n(-c2ccc3cc(Cl)ccc3c2)n1 | 1.8 nM | > 5 µM | 6 nM | – |
| Cc1cc(C(=O)Nc2ccc(N3CCCCCC3=O)cc2F)n(-c2cc3ccccc3cc2S(C)(=O)=O)n1 | – | – | 47 nM | – |
| Cc1cc(C(=O)Nc2ccc(-c3cccc(C(=N)N)c3)cc2)n(-c2ccc3cc(Cl)ccc3c2)n1 | – | – | 75 nM | – |
| Cc1cc(C(=O)Nc2ccc(-c3ccccc3CN(C)C)cc2F)n(-c2cc3ccccc3cc2S(C)(=O)=O)n1 | 2.4 nM | 0.64 µM | 7 nM | IC50 [10]: > 10000 nM; half-life [4]: 2.8 h; IC50 (Plasminogen): > 10000 nM; IC50 [5]: > 10000 nM; Vd [6]: 27.3 L/kg; IC50 (Prothrombin): > 10000 nM; clearance [7]: 114 mL/min/kg; IC50 (Kallikrein-1): > 10000 nM; bioavailability [8]: 18%; IC50 (Serine protease 1): > 10000 nM |
| Cc1cc(C(=O)Nc2ccc(-c3ccccc3CN)cc2)n(-c2ccc3cc(Cl)ccc3c2)n1 | – | – | 39 nM | – |
